In ChEMBL document CHEMBL6134849, “A Water-Soluble Aggregation-Induced Emission Photosensitizer with Intrinsic Antibacterial Activity as an Antiplanktonic and Antibiofilm Therapeutic Agent” (J Med Chem, 2025):
Active and inactive are the calls of the source. The rule behind the calls is not given here.

Columns and labels:
Staphylococcus aureus [1] = experiment: Downregulation of uppP expression level in Staphylococcus aureus at 6.25 uM incubated for 1 hr in absence of light irradiation; assay type: functional
Cell membrane [2] = experiment: Induction of cell membrane damage in Staphylococcus aureus assessed as bacterial cell shrinkage at 10 uM preincubated with compound for 20 mins followed by 600 nm light irradiation for 45 min by SEM analysis; assay type: subcellular; conditions: time 65.0 min
Pseudomonas aeruginosa [3] = experiment: Antibiofilm activity against Pseudomonas aeruginosa assessed as bacterial eradication by measuring green fluorescence signal at 10 uM incubated for 1 hrs in presence of light irradiation by calcein-AM fluorescence dye based analysis; assay type: functional, organism-based
[4] = Induction of type-I ROS generation in PBS assessed as increase in nonspecific ROS by measuring increase in DHR123 fluorescence intensity at 10 uM irradiated with 660 nm 60 mW/cm2 light for 15 mins by DHR123 probe based plate reader analysis; assay type: functional
[5] = Induction of type-II ROS generation in PBS assessed as increase in nonspecific ROS by measuring increase in DHR123 fluorescence intensity at 10 uM irradiated with 660 nm 60 mW/cm2 light for 15 mins by DHR123 probe based plate reader analysis; assay type: functional
Staphylococcus aureus [6] = experiment: Antibiofilm activity against Staphylococcus aureus assessed as mature biofilm eradication incubated for 24 hrs under dark condition in absence of light irradiation by crystal violet staining based analysis; assay type: functional, organism-based
Staphylococcus aureus [7] = experiment: Downregulation of sepF expression level in Staphylococcus aureus at 6.25 uM incubated for 1 hr in absence of light irradiation; assay type: functional
Cell membrane [8] = experiment: Induction of cell membrane damage in Pseudomonas aeruginosa assessed as RNA leakage at 10 uM preincubated with compound for 20 mins followed by 600 nm light irradiation for 45 min by absorption based plate reader analysis; assay type: subcellular; conditions: time 65.0 min
Staphylococcus aureus [9] = experiment: Downregulation of tyrS expression level in Staphylococcus aureus at 6.25 uM incubated for 1 hr in absence of light irradiation; assay type: functional
Staphylococcus aureus [10] = experiment: Downregulation of ftsA expression level in Staphylococcus aureus at 6.25 uM incubated for 1 hr in absence of light irradiation; assay type: functional
Staphylococcus aureus [11] = experiment: Downregulation of lytH expression level in Staphylococcus aureus at 6.25 uM incubated for 1 hr in absence of light irradiation; assay type: functional
[12] = molecular target: T1, DNA gyrase (Staphylococcus aureus) (UniProt P0A0K8+P20831); experiment: Inhibition of Staphylococcus aureus DNA gyrase supercoiling assessed as decrease in supercoiled DNA band intensity using relaxed pBR322 as substrate at 25 uM incubated for 30 mins in absence of light irradiation by gel based method; assay type: protein-complex assay
Cell membrane [13] = experiment: Induction of cell membrane damage in Pseudomonas aeruginosa assessed as bacterial cell collapse at 10 uM preincubated with compound for 20 mins followed by 600 nm light irradiation for 45 min by SEM analysis; assay type: subcellular; conditions: time 65.0 min
Staphylococcus aureus [14] = experiment: Downregulation of hlgC protein expression in Staphylococcus aureus under light irradiation; assay type: functional
Staphylococcus aureus [15] = experiment: In vivo antibacterial activity against methicillin-resistant Staphylococcus aureus ATCC 43300 infected in female BALB/c mouse skin wound infection model assessed as reduction in inflammatory cell infiltration in wound at 90 uM pre-infected with bacteria for 24 hrs followed by topical compound addition for 10 mins in presence of 600 nm 60 mW/cm2 light irradiation for 15 mins and measured on day 6 by H and E staining based analysis; assay type: functional, organism-based; conditions: time 6.0 day
Pseudomonas aeruginosa [16] = experiment: Antibacterial activity against Pseudomonas aeruginosa ATCC 27853 in presence of Muller-Hinton medium by broth microdilution method; assay type: functional
Staphylococcus aureus [17] = experiment: Antibacterial activity against Staphylococcus aureus at 6.25 uM measured within 2 hrs in absence of light irradiation by time-kill kinetics assay relative to control; assay type: functional
Staphylococcus aureus [18] = experiment: Downregulation of murI expression level in Staphylococcus aureus at 6.25 uM incubated for 1 hr in absence of light irradiation; assay type: functional
Staphylococcus aureus [19] = experiment: Downregulation of valS expression level in Staphylococcus aureus at 6.25 uM incubated for 1 hr in absence of light irradiation; assay type: functional
Staphylococcus aureus [20] = experiment: Antibiofilm activity against Staphylococcus aureus assessed as bacterial eradication by measuring green fluorescence signal at 10 uM incubated for 1 hrs in presence of light irradiation by calcein-AM fluorescence dye based analysis; assay type: functional, organism-based
Staphylococcus aureus [21] = experiment: Downregulation of ssl7 protein expression in Staphylococcus aureus under light irradiation; assay type: functional
Cell membrane [22] = experiment: Induction of cell membrane damage in Pseudomonas aeruginosa assessed as bacterial cell shrinkage at 10 uM preincubated with compound for 20 mins followed by 600 nm light irradiation for 45 min by SEM analysis; assay type: subcellular; conditions: time 65.0 min
Staphylococcus aureus [23] = experiment: Downregulation of cell wall organization related proteins in Staphylococcus aureus under light irradiation; assay type: functional, organism-based
Cell membrane [24] = experiment: Induction of cell membrane damage in Pseudomonas aeruginosa assessed as DNA leakage at 10 uM preincubated with compound for 20 mins followed by 600 nm light irradiation for 45 min by absorption based plate reader analysis; assay type: subcellular; conditions: time 65.0 min
[25] = molecular target: T1, DNA gyrase (Staphylococcus aureus); experiment: Inhibition of Staphylococcus aureus DNA gyrase supercoiling using relaxed pBR322 as substrate at 3.125 to 25 uM incubated for 30 mins in absence of light irradiation by gel based method; assay type: protein-complex assay; conditions: dose 3.125-25 µM
Staphylococcus aureus [26] = experiment: Downregulation of murF expression level in Staphylococcus aureus at 6.25 uM incubated for 1 hr in absence of light irradiation; assay type: functional
Staphylococcus aureus [27] = experiment: In vivo antibacterial activity against methicillin-resistant Staphylococcus aureus ATCC 43300 infected in female BALB/c mouse skin wound infection model assessed as reduction in wound area at 90 uM pre-infected with bacteria for 24 hrs followed by topical compound addition for 10 mins in presence of 600 nm 60 mW/cm2 light irradiation for 15 mins and measured on day 4; assay type: functional, organism-based; conditions: time 4.0 day
Staphylococcus aureus [28] = experiment: Downregulation of murG expression level in Staphylococcus aureus at 6.25 uM incubated for 1 hr in absence of light irradiation; assay type: functional
Cell membrane [29] = experiment: Induction of cell membrane damage in Staphylococcus aureus assessed as protein leakage at 10 uM preincubated with compound for 20 mins followed by 600 nm light irradiation for 45 min by absorption based plate reader analysis; assay type: subcellular; conditions: time 65.0 min
[30] = Induction of type-I ROS generation in PBS assessed as increase in hydroxyl radical by measuring increase in HPF fluorescence intensity at 10 uM irradiated with 660 nm 60 mW/cm2 light for 15 mins by HPF probe based plate reader analysis; assay type: functional
Staphylococcus aureus [31] = experiment: Downregulation of ftsZ expression level in Staphylococcus aureus at 6.25 uM incubated for 1 hr in absence of light irradiation; assay type: functional
Staphylococcus aureus [32] = experiment: Selective drug uptake in Staphylococcus aureus co-cultured with human HFF-1 cells by measuring fluorescence signal at 10 uM incubated for 20 mins; assay type: ADME, organism-based; conditions: hff-1, 20 min
Cell membrane [33] = experiment: Induction of cell membrane damage in Staphylococcus aureus assessed as bacterial cell collapse at 10 uM preincubated with compound for 20 mins followed by 600 nm light irradiation for 45 min by SEM analysis; assay type: subcellular; conditions: time 65.0 min
Staphylococcus aureus [34] = experiment: Downregulation of ddl expression level in Staphylococcus aureus at 6.25 uM incubated for 1 hr in absence of light irradiation; assay type: functional

T1 sequence (P0A0K8 2-644 limits assumed): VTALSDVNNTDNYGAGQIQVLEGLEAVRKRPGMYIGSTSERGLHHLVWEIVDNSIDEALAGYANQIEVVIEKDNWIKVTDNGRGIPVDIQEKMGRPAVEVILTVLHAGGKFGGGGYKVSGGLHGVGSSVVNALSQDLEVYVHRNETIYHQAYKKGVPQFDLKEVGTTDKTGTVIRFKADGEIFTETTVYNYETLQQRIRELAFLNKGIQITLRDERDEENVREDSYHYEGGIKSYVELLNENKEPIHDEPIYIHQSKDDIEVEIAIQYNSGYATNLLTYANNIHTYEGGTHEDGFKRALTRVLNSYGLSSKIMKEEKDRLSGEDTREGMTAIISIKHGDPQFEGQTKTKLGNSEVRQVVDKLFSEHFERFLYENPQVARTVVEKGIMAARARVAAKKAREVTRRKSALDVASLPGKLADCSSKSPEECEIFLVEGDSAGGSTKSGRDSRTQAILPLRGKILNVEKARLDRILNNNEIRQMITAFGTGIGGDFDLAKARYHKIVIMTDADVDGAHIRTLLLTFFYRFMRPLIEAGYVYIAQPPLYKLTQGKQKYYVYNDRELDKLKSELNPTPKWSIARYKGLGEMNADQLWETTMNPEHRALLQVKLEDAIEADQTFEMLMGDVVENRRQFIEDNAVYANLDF
T1 sequence (P20831 whole entry partner): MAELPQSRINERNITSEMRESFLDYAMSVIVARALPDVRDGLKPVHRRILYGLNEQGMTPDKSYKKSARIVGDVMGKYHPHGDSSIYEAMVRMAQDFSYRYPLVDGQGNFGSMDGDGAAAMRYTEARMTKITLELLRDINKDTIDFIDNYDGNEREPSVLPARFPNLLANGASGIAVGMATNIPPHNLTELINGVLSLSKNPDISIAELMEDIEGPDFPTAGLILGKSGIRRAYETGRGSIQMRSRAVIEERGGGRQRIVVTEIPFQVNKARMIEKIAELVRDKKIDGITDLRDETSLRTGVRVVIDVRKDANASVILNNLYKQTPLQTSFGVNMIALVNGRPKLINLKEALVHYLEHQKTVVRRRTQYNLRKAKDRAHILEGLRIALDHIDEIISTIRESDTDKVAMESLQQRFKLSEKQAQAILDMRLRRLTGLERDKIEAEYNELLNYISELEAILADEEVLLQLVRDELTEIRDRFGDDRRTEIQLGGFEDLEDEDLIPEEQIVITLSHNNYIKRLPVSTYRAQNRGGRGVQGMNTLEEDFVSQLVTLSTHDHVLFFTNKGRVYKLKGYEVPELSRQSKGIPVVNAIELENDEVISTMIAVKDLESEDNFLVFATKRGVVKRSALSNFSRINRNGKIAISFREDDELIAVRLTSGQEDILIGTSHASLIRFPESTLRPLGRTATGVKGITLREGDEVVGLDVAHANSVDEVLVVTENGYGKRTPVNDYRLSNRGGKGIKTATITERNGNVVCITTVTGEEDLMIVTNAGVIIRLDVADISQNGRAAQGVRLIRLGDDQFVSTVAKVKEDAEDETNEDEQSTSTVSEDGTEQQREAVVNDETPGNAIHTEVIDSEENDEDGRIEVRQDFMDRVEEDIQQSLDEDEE

C#CCC[n+]1c(/C=C/c2ccc(-c3ccc(N(c4ccc(OCCC[N+](C)(C)C)cc4)c4ccc(OCCC[N+](C)(C)C)cc4)cc3)s2)sc2ccccc21.[Br-].[Br-].[Br-]
Activity (Staphylococcus aureus [1]): Active | Activity (Cell membrane [2]): Active | Activity (Pseudomonas aeruginosa [3]): Active | Activity [4]: Active | Activity [5]: Active | Activity (Staphylococcus aureus [6]): Active | Activity (Staphylococcus aureus [7]): Active | Activity (Cell membrane [8]): Active | Activity (Staphylococcus aureus [9]): Active | Activity (Staphylococcus aureus [10]): Active | Activity (Staphylococcus aureus [11]): Active | inhibition [12]: Active | Activity (Cell membrane [13]): Active | Activity (Staphylococcus aureus [14]): Active | Activity (Staphylococcus aureus [15]): Active | MIC (Pseudomonas aeruginosa [16]): ≤ 100 µM | Activity (Staphylococcus aureus [17]): 100% | Activity (Staphylococcus aureus [18]): Active | Activity (Staphylococcus aureus [19]): Active | Activity (Staphylococcus aureus [20]): Active | Activity (Staphylococcus aureus [21]): Active | Activity (Cell membrane [22]): Active | Activity (Staphylococcus aureus [23]): Active | Activity (Cell membrane [24]): Active | inhibition [25]: Active | Activity (Staphylococcus aureus [26]): Active | Activity (Staphylococcus aureus [27]): Active | Activity (Staphylococcus aureus [28]): Active | Activity (Cell membrane [29]): Active | Activity [30]: Active | Activity (Staphylococcus aureus [31]): Active | Drug uptake (Staphylococcus aureus [32]): Active | Activity (Cell membrane [33]): Active | Activity (Staphylococcus aureus [34]): Active
